The source of these data is article PMC7217877, “N-AS-triggered SPMs are direct regulators of microglia in a model of Alzheimer’s disease” (Nature Communications, 2020).

The test system of this test is APP/PS1 mice. The test is described as follows: lipid mediator-SPM profile of microglia isolated from treated mice (LC-MS/MS, Supplementary Table 2, Fig 4e-g). The test is classed as in vivo, mouse. Details: 15R-LXA4 level in microglia (sFig 4g) / RvE1 level in microglia (sFig 4g) / RvD1 level in microglia (sFig 4g): unit not given here. Here is the method: Lipid mediators metabololipidomics were performed according to previously described procedures with minor modifications[4],[30]. To confirm the biosynthesis of lipid mediators by recombinant COX2 treated with N-AS or aspirin, 10 U of human recombinant COX2 (Cayman, 60122) was incubated in the presence of 500 μM aspirin (Sigma-Aldrich, A5376) or N-AS (Sigma-Aldrich, 01912) at 37 °C for 30 min. The enzyme was filtered with a Microcon column (Millipore) to remove unreacted aspirin or N-AS and was then resuspended in 0.1 M Tris-HCl (pH 8.0). Next, 500 μM phenol (Sigma-Aldrich) and 1 μM hematin-porcine (Sigma-Aldrich) were added immediately before incubation with 100 μM AA, EPA or DHA (Cayman) at 37 °C for 2 h, respectively. The mixtures were incubated with 30 U of human 5-LOX (Cayman, 60402) containing 2 mM CaCl2 (Sigma-Aldrich), 1 mM ATP (Amresco) and 5 μM 13-HpODE (Cayman) as activators. Also, to validate the importance of residue S565 for N-AS-acetylation of COX2 and production of SPMs, 10 U of the COX2 S565A mutant was used in the above-described method. In addition, to confirm SPM generation in neurons and microglia, these cells were treated with Aβ and sonicated in neuronal and glial culture medium. […] To evaluate the relationship of N-AS and SPM production in microglia, microglia were isolated from WT, APP/PS1, and APP/PS1 treated with N-AS mice at 9 months of age. The microglia were sonicated and resuspended in microglial culture medium. The supernatants were incubated with 100 μM AA, EPA, and DHA (Cayman) at 37 °C for 2 h. A 50 μl aliquot of the mixture from each cell lysate was added to a 250 μl aliquot of 1 ng ml^−1 of 15S-LXA4-d5 (internal standard, Cayman) methanol solution. After vortexing for 10 min and centrifuging at 15,974×g for 5 min, the supernatant was subjected to the analysis of the lipid mediators using an Agilent 6470 Triple Quad LC-MS/MS system (Agilent) coupled to an Agilent 1290 HPLC system. Chromatographic separation was achieved using a Synergi Polar RP (4 μm, 2.0 mm i.d. × 150 mm, Phenomenex). Analytes were eluted with a mobile phase consisting of water: formic acid (100:0.1 v/v) (phase A) and methanol: formic acid (100:0.1 v/v) (phase B) in gradient elution mode for 23 min a flow rate of 0.2 ml min^−1. The elution gradient was as follows: from 0 to 0.1 min the content of phase A was 37% and the content of phase A was decreased to 10% and maintained for 5.5 min. The content of phase A was increased back to 37% at 6.0 min and maintained for 23 min. Quantification was carried out using MRM in negative ionization mode and collision energy of 10–15 eV. The mass transition from Q1 to Q3 is shown in Supplementary Table 2. In this study, the peak areas for all components were automatically integrated using MassHunter B 06.00.
Adult neurons and microglia were isolated from the mice brain as previously described. In brief, the cortex of WT (1, 3, 5, or 9-months-old), APP/PS1 (1, 3, 5, or 9-months-old), APP/PS1 treated with N-AS (9-months-old) or APP/PS1 treated with aspirin (9-months-old) mice were minced in Hibernate A (Gibco)/B27 (Invitrogen) medium and dissociated using papain (Worthington) solution. After tissue trituration, cells were separated by Optiprep (Sigma-Aldrich) density gradient centrifugation. The purity of the fractionated neurons and microglia were acutely confirmed by neuronal (NeuN, mouse, 1:200, Millipore, MAB377) and microglial (Iba1, rabbit, 1:1000, Wako, 019-19941) markers and the isolated neurons and microglia were acutely analyzed for the acetylation assay and lipid mediators metabololipidomics.
Transgenic mouse lines over-expressing the hAPP695swe (APP) and presenilin-1M146V (PS1) mutations were originated from GlaxoSmithKline (Harlow, UK)[32] and maintained as described previously. We purchased 5×FAD mice from Jackson Labs (Stock number. 34840-JAX). Because APP/PS1 and 5xFAD mice show sex differences in disease progression, we used only male mice. […]

Setting [1] is: APP/PS1 + N-AS, individual samples.

Where “and” joins values, the source holds several entries; their conditions need not be identical. Equal values may be shown once.

In the case of `CCCCCCCCCCCCC/C=C/[C@@H](O)[C@H](CO)NC(C)=O` [N-AS, N-((2S,3R,E)-1,3-Dihydroxyoctadec-4-en-2-yl)acetamide], under setting [1], the “15R-LXA4 level in microglia (sFig 4g)” value was 4570 and 5879.36 and 4407.58 and 3923.74 and 3772.92 and 3755.88 and 4463.12 and 4253.3; the “RvD1 level in microglia (sFig 4g)” value was 122.239 and 113.373 and 105 and 174.655 and 77.0631 and 102.088 and 125.141 and 80.0045; the “RvE1 level in microglia (sFig 4g)” value is 121.276 and 201.615 and 123.367 and 132.221 and 152.593 and 109.936 and 221.33. Also, where the note is “APP/PS1/N-AS, mean±s.e.m., n=6”, the “11-HEPE in mouse microglia” value was found to be 8016.0±190.1 pg/1*106cell, the “11-HETE in mouse microglia” value was 8870.6±557.1 pg/1*106cell, the “13-HDHA in mouse microglia” value turned out to be 6824.5±237.7 pg/1*106cell and the “15-HEPE in mouse microglia” value was found to be 5286.6±214.8 pg/1*106cell. For the setting “APP/PS1/N-AS, mean±s.e.m., n=6”, the “15-HETE in mouse microglia” value was 33117.1±1929.6 pg/1*106cell, the “15R-LXA4 in mouse microglia” value was found to be 4378.2±241.8 pg/1*106cell, the “17-HDHA in mouse microglia” value amounted to 86224.5±10404.3 pg/1*106cell and the “18-HEPE in mouse microglia” value was 31965.9±2934.1 pg/1*106cell. Further, where the note is “APP/PS1/N-AS, mean±s.e.m., n=6”, the “AA in mouse microglia” value amounted to 39563.5±824.8 pg/1*106cell, the “DHA in mouse microglia” value is on record as 37384.7±1351.7 pg/1*106cell, the “EPA in mouse microglia” value is 406.6±21.1 pg/1*106cell and the “LTB4 in mouse microglia” value is 876.5±71.9 pg/1*106cell. Besides, where the note is “APP/PS1/N-AS, mean±s.e.m., n=6”, the “PGE3/PGD3 in mouse microglia” value is 2590.3±243.8 pg/1*106cell, the “PGH2/PGE2 in mouse microglia” value came out at 3862.0±266.4 pg/1*106cell, the “RvD1 in mouse microglia” value amounted to 112.4±10.9 pg/1*106cell and the “RvE1 in mouse microglia” value is given as 151.8±16.3 pg/1*106cell. Moreover, where the note is “APP/PS1/N-AS, mean±s.e.m., n=6”, the “TxB3 in mouse microglia” value was found to be 1209.9±70.0 pg/1*106cell.
